This is an account of results in US4423029A, “(S)-3-Amino-4-[(S,S)-1-(1-hydroxyethyl)alkyl amino]-4-oxo-butyric acid compounds suitable as non-nutritive sweetners” (The Procter & Gamble Company, priority 1981, dated 1983).

Broadly, the fraction remaining is the share of the starting amount still present when the sample was taken. A word on the half-life: it is the time in which the quantity being followed falls by half. The solubility is the dissolved amount per volume that the medium holds.

Series [1] in a line: Hydrolytic stability in aqueous phosphate buffer. The following applies: for remaining at 360 h / half-life: 0.02 m phosphate buffer; for remaining at 360 h: read-out: % Remaining After 15 Days; for half-life: 0.02 M phosphate. Type of series: physicochemical. How it is done:
Stability tests were performed on the compound of formula (II) to determine the sweetener's resistance to hydrolysis under varying conditions.
The tests were performed using solutions of (II) in aqueous phosphate buffer, 0.02 M, at pH 3.5 and 6.9. The solutions were incubated at ~43° C. (110° F.), ~54° C. (130° F.), and ~66° C., (150° F.) for up to 32 days.
Samples from the test solutions were withdrawn at regular intervals and analyzed by reversed-phase high performance liquid chromatography for remaining intact (II), using the following conditions:
Column: 25 cm×0.4 cm I.D. stainless steel packed with Lichrosorb RP-18, 5μ particle size.
Mobile phase: Acetonitrile/0.01 M phosphate buffer (155/845 v/v), pH 6.
Detection: UV absorbance at 220 nm (~2200 Å). Results were quantified by comparison with standard solutions kept frozen during the tests. Peak heights were measured for replicate injections.
By use of the Arrhenius equation, [formula] where k is the specific reaction velocity, T is the absolute temperature (°K.), A is the activation energy constant, t is time, and R is the gas law constant, change in the rate of a first-order chemical reaction with temperature can be calculated. The half-life of (II) at ambient temperature and pH 6.9 is estimated to be 760 days (>2 yrs).

A short description of series [2]: Amide bond cleavage by rat intestine homogenate. Type of series: in vitro ADME. Conditions: pH 7.0, 37° C., up to two hours, standardized to Aspartame/rat = 100. An excerpt:
(§1) This aspartic acid has the same caloric value as sugar, on a per-gram basis. These aspartic acid amide sweeteners are therefore not non-nutritive, but, rather, low calorie. In addition, the other molecular fragment released as a result of amide cleavage is frequently a non-physiological amine. It was therefore considered appropriate to gauge the rate of amide cleavage of compound (II) by digestive enzymes in evaluating both the calorigenic and the toxicologic potential of compounds of this invention.
(§2) Assays were performed in the following manner:
(§3) Aliquots of four mM solutions of test compounds in 100 mM potassium phosphate buffer solution at pH 7.0 were incubated at 37° C. (98.6° F.) for up to two hours with a standardized amount of animal intestine homogenate containing digestive enzymes. At the end of the incubation period, the enzymes were inactivated by boiling and the extent of amide bond hydrolysis was quantified by measurement of free L-aspartic acid in the solution. This was done by incubating a sample of the test solution with enzymes and substrates that convert L-aspartate to L-malate with concomitant oxidation of a pyridine nucleotide having a characteristic absorbance at 340 nanometers. The decrease in optical density at this wavelength is proportional to the amount of L-aspartate generated by amide bond hydrolysis.

Series [3] is described as follows: Amide bond cleavage by monkey intestine homogenate. Conditions: pH 7.0, 37° C., up to two hours, standardized to Aspartame/rat = 100. Type of series: in vitro ADME.
Source text: as §1, §2, §3

The conditions of series [4]: cited from earlier work; for taste: in words; for sweetness intensity: L-aspartic acid alkyl amides, Mazur et al. 1970.
For series [5] the following is noted: in words; cited from earlier work.
The conditions of series [6]: cited from earlier work; for half-life: pH 4.
The conditions of series [7]: in words; cited from earlier work. This is another data set of the same source.
Series [8] is described as follows: Resistance to hydrolysis by digestive enzymes (statement in words). Type of series: in vitro ADME, animal.
Source text: as §1, §2
as §3, with “hydrolysis. […]” for “hydrolysis.”

A short description of series [9]: Taste evaluation (human taste panel, comparison with sucrose standards). Type of series: in vivo, Male subjects. The following applies: for taste / sweetness quality: in words. As to the method: The taste quality and sweetness intensity of the compounds of the present invention were determined by the following procedure.
Male subjects were selected at random from a group of about 20 persons who had previously been selected on the basis of proven tasting acuity, i.e., persons who could easily recognize the four basic tastes (sweet, sour, bitter and salty) and who were adept at quantifying their own physiological response numerically. The subjects were asked to taste and expectorate about 10 ml of a sample at about 22° C. containing dissolved test material. The subjects were then asked to compare the sweetness (and other taste qualities) of the test solution with four or five standard coded samples which contained increasing amounts of sucrose. Sweetness intensity of the unknown material was recorded by the subject making a mark on a coded closed linear scale at a point they considered equal in sweetness among the standards; interpolation between standards was encouraged. After completion of the panel, a four or five point (1-4 or 1-5, depending on the number of standards) numeric scale was superimposed on the coded linear scales to obtain numerical data; data were averaged and recorded to the nearest 0.25 unit. Equivalent sucrose sweetness was determined by referring to graphs of (w/v) sucrose concentration and standards versus a linear numeric scale.
Sweetness intensity was calculated by dividing the concentration (w/v) of perceived sweetness by the concentration (w/v) of test material required to produce that sweetness. Most taste comparisons were made in the range of 5-10% sucrose sweetness.
The five point scale with standards ranging from 1.37% (0.040 M) to 11.97% (0.35 M) sucrose usually sufficed to bracket the sweet intensity of a test sample. However, in the cases of beverage prototypes it was more meaningful to use prototype beverage solutions containing 2.5, 5.0, 10.0, 15.0 and 20.0% sucrose as standards. In all cases, evaluation of sweetness intensity in terms of sucrose equivalents was made with reference to graphs which related sucrose concentration and standard prototypes to the particular (arbitrary) scale units employed.
In tests in which taste quality was estimated, the subjects were asked to describe the initial taste and aftertaste in terms of percent sweet, sour, bitter, salty and "other", totalling 100%. In all tests, bottled spring water was used for rinsing between samples.

Series [10] in a line: Aqueous solubility and calculated maximum effective sweetening power. Type of series: physicochemical. Conditions: for solubility / Calculated Maximum Effective Sweetening Power: approximate (~). How it is done:
The solubility of compound (II) was determined in standard fashion. Water at pH 7 and 20° C. was used, except where indicated.
Because sweetness tends to plateau at higher concentrations of high intensity sweeteners, these calculations overestimate the actual sweetening power of the compounds of this invention.

The mark [11] stands for this setting: pH 3.5, .02M Phosphate Buffer at 54° C.
[12] abbreviates: pH 7, .02M Phosphate Buffer at 54° C.

Converted amounts (≈) assume the structure as drawn. “Also recorded” adds a separate entry of the source. Read-outs that look alike come from different tables or passages of the source. Residues, ends and D or L forms follow the SMILES beside them.

Turning to `CC(C)CCC(CO)NC(=O)[C@@H](N)CC(=O)O` (some centres unmarked), the amount remaining at 360 h in [1] (setting [11]) was 88%; in series [1] (setting [12]), 72%.
In the case of `N[C@@H](CC(=O)O)C(=O)N[C@H](CO)Cc1ccccc1`, in series [2], the “Relative rate of amide bond cleavage” value is listed as 19.
Take `CC(C)C[C@@H](CO)NC(=O)[C@@H](N)CC(=O)O`: the “Relative rate of amide bond cleavage” value in [2] is recorded as 11.
With `CC(C)CC[C@@H](CO)NC(=O)[C@@H](N)CC(=O)O`, the “Relative rate of amide bond cleavage” value in series [2] was found to be 35; in series [3], 103.
Take `CCCCCC(CO)NC(=O)[C@@H](N)CC(=O)O` (some centres unmarked): the “Relative rate of amide bond cleavage” value in series [2] is 35.
With `CC(C)CCCC(C)NC(=O)[C@@H](N)CC(=O)O` (some centres unmarked), the “Relative rate of amide bond cleavage” value came to 38 in [2] and 68 in series [3].
With `N[C@@H](CC(=O)O)C(=O)Nc1ccc2ccccc2c1`, in series [2], the “Relative rate of amide bond cleavage” value turned out to be 4.
For the compound `CC(C)CC(C)NC(=O)[C@@H](N)CC(=O)O` (some centres unmarked) [1,3-dimethylbutyl], in series [4], the taste entry was “bitter”.
Consider `CCC(C)CC(C)NC(=O)[C@@H](N)CC(=O)O` (some centres unmarked) [1,3-dimethylpentyl], for which, in series [4], the sweetness intensity is 1-2 X sucrose and the taste result was “sweet”.
`CC(C)CCC(C)NC(=O)[C@@H](N)CC(=O)O` (some centres unmarked) [1,4-dimethylpentyl]: in series [4], the sweetness intensity is 50-100 X sucrose and the taste result was “sweet”.
For the compound `CC(C)CCCC(C)N` (centres unmarked) [1,5-dimethylhexylamine], the pharmacological activity entry in series [5] was “vasopressor and myocardial stimulant activity”.
Regarding `CCCC(C)NC(=O)[C@@H](N)CC(=O)O` (some centres unmarked) [1-methylbutyl], in series [4], the taste result is given as “tasteless”.
For the compound `CCCCCCC(C)NC(=O)[C@@H](N)CC(=O)O` (some centres unmarked) [1-methylheptyl], in series [4], the sweetness intensity is reported as 10 X sucrose and the taste result is given as “sweet”.
With `CCCCCC(C)NC(=O)[C@@H](N)CC(=O)O` (some centres unmarked) [1-methylhexyl], in series [4], the sweetness intensity is 20-50 X sucrose and the taste entry was “sweet”.
For the compound `CCCCC(C)NC(=O)[C@@H](N)CC(=O)O` (some centres unmarked) [1-methylpentyl], in [4], the sweetness intensity is listed as 30 X sucrose and the taste entry is on record as “sweet”.
With `CC(C)CCCNC(=O)[C@@H](N)CC(=O)O` [4-methylpentyl], the taste entry in series [4] is on record as “tasteless”.
As to `COC(=O)[C@H](Cc1ccccc1)NC(=O)[C@@H](N)CC(=O)O` [Aspartame, L-aspartyl-L-phenylalanine methyl ester] (H-Asp-Phe-OMe), the figures for the “Relative rate of amide bond cleavage” value in series [2] and in series [3] were 100 and 157, respectively. The half-life in [6] (40° C.) is 68 days; in series [6] (55° C.), 16 days. Moreover, the “stability in aqueous media” value in series [6] (in words) was “hydrolyzes rapidly in aqueous media to non-sweet compounds”. The “% Remaining After 15 Days” value in series [6] (pH 3.5, 54° C., comparable data from literature) is listed as 50%. Also, the “% Remaining” value in [6] (pH 7, 54° C., at 1 day, comparable data from literature) is listed as 0%. Further, the “hydrolysis by gut enzymes” value in series [7] is “readily converted to L-aspartic acids by enzymes in the gut”. Besides, the taste entry in [4] is “high quality sweetness; also recorded: free of unpleasant aftertaste”.
As for `CCCC(CC)NC(=O)[C@@H](N)CC(=O)O` (some centres unmarked) [Compound 1-ethylbutyl], the taste entry in series [4] was “bitter”.
With `CC(C)CC[C@H](NC(=O)[C@@H](N)CC(=O)O)[C@H](C)O` [Compound II, (S)-3-amino-4-[(S,S)-1-(1-hydroxyethyl)-4-methyl-pentylamino]-4-oxo-butyric acid], the “Relative rate of amide bond cleavage” value in series [2] and in series [3] was 0 throughout. Further, in series [8], the “resistance to enzymatic hydrolysis” value is “resistant to enzymatic hydrolysis”. The “sweetness intensity” value was 85 × sucrose in series [9] (Lemonade) and 60 × sucrose in [9] (Water). In [9] (at an 8% sucrose sweetness level), the “sweetness relative to sucrose” value is reported as “approximately 60 times”. The “taste / sweetness quality” value in series [9] is “sweetness quality comparable to sucrose; also recorded: sweet in both aqueous solution and granular form”; in [9] (listed as (S,S,S) compound), “sweet”. Also, the half-life is 57 days in [1] (pH 3.5, 54° C., pH start 3.5 (end 4.3)); 17 days in [1] (pH 3.5, 66° C., pH start 3.5 (end 4.8)); 148 days in series [1] (pH 6.9, 43° C., pH start 6.9 (end 6.8)); 64 days in series [1] (pH 6.9, 54° C., pH start 6.9 (end 6.09)); 22 days in series [1] (pH 6.9, 66° C., pH start 6.9 (end 7.5)). Also, the share remaining at 360 h in series [1] (setting [11]) is 82%; in series [1] (setting [12]), 86%. In series [1] (in words), the “stability in aqueous media” value is “stable in moderately alkaline, neutral and moderately acidic aqueous media”. Also, in series [1] (log (% (II) intact) versus time), the “reaction order of hydrolysis” value is “consistent with a reaction following first order kinetics”. Moreover, the solubility in [10] (Water, pH 7, 20° C.) is 30 to 40 mg/mL (≈ 115 to 154 mM); in series [10] (lemonade, ditto mark), 30 to 40 mg/mL (≈ 115 to 154 mM). In addition, the “Calculated Maximum Effective Sweetening Power” value in series [10] (Water) was 180-240 g % sucrose equivalent; in [10] (lemonade), 255-340 g % sucrose equivalent. For the same compound, the solubility in water entry in series [10] (in words) was “surprisingly soluble in water”.
Regarding `COc1ccc(CCC(=O)c2c(O)cc(O[C@@H]3O[C@H](CO)[C@@H](O)[C@H](O)[C@H]3O[C@@H]3O[C@@H](C)[C@H](O)[C@@H](O)[C@H]3O)cc2O)cc1O` [Neohesperidin dihydrochalcone], the taste result in [4] was “the sweetness is slow to develop and it has a licorice-like aftertaste”.
Consider `CCCCCCCNC(=O)[C@@H](N)CC(=O)O` [heptyl], for which, in series [4], the sweetness intensity is reported as 1-2 X sucrose and the taste result was “sweet”.
In the case of `CCCCCCNC(=O)[C@@H](N)CC(=O)O` [hexyl], in [4], the sweetness intensity was 1-2 X sucrose and the taste result is on record as “sweet”.
As for `O=C1NS(=O)(=O)c2ccccc21` [saccharin], the taste entry in series [4] is reported as “bitter aftertaste”.
